Experimental data from patent US20180332881A1, “PRETERM INFANT FORMULA […] AND USES THEREOF” (Mead Johnson Nutrition Company, priority 2017, published 2018).

System: oligodendrocyte precursor cells (OPCs)
Experiment: Differentiation of purified oligodendrocyte precursor cells (OPCs) into mature oligodendric cells (MBP / PDGFRα immunostaining)
Format: cell-based, rat
Details: 48 hours
Method: The OPCs were purified from P7 rat brain cortices. Rodent brain cortices were diced and dissociated with papain at 37° C. After trituration, […] were resuspended in a panning buffer and incubated at room temperature sequentially on the three immunopanning dishes: Ran-2 and GalC were used for negative selection before positive selection with 04. OPCs were released from the panning dish using 0.05% Trypsin. OPCs were seeded onto PPL-coated coverslips at 200,000 per 25 mm circle coverslip in a chemically defined culture medium with PDGFa overnight.
Sodium Butyrate (NaB) was dissolved in sterile water and added into culture medium the next day to reach desire concentration. OPC coverslips were placed into 6-well dishes, 1 ml of NaB-containing culture medium without PDGFα was added to each well. Cells were cultured for 48 hours before fixation and immunostaining. PDGFRα antibody identifies OPCs and MBP (myelin basic protein) antibody labels differentiated oligodendrocytes. Percentage of MBP-positive cells out of all PDGFRα- and MBP-positives cells were quantified.
Examining a dose response for sodium butyrate on purified oligodendroglial cultures. Sodium butyrate was added to purified oligodendroglial cultures and cells were analyzed after 48 hours of treatment for effects on survival, proliferation and differentiation. Oligodendrocyte precursor cells were immunostained with PDGFRα shown in green, oligodendrocytes were immunostained with MBP in red, cell nuclei were labeled with DAPI in blue. Percentage of MBP-positive oligodendrocytes among all oligodendroglial cells was quantified at various concentrations of sodium butyrate. The asterisks represent significance based on Students t-test with the respective controls (*p<0.05, **p<0.01)

CCCC(=O)[O-].[Na+] [sodium butyrate, Sodium Butyrate]
effect to promote OPC to differentiate into mature oligodendric cells (dose response) (50 nM to 250 μM): dose-dependent manner | number of oligodendric cells from OPC compared to the control (MBP immunohistochemistry, FIG. 7) (250 μM sodium butyrate): statistically significant increase | fold increase in the numbers of differentiated and matured oligodendric cells as compared to the control (250 μM sodium butyrate, OPCs from P7 rat brain cortices): 2.6 fold | increase in Oligo cells (percentage of MBP-positive cells) as compared to the control (each of the concentrations tested (50 nM, 500 nM, 5 μM, 50 μM, 250 μM)): statistically significant increase
